# Assay results taken from US20100184699A1, “Peptide Derived From Prostate-Related Protein As Cancer Vaccine Candidate For Prostate Cancer Patient Who Is Positive For Hla-A3 Super-Type Allele Molecule” (priority 2005, published 2010).
# System: peptide-specific IgG in plasma of prostate cancer patients and healthy donors
# Assay: Detection of peptide-specific IgG in plasma by ELISA
# Type: binding, human
# Conditions: for IgG reactive to peptide in plasma: 1:100-diluted plasma
# [1] = Prostate cancer patient 10, A11
# [2] = Prostate cancer patient 16, A33
# [3] = Prostate cancer patient 12, A11
# [4] = Prostate cancer patient 13, A11
# [5] = Prostate cancer patient 14, A33
# [6] = Prostate cancer patient 17, A33
# [7] = Prostate cancer patient 19, A33
# [8] = Prostate cancer patient 20, A33
Substance,"IgG reactive to peptide in plasma, Total (positive/tested) (Healthy donors)","IgG reactive to peptide in plasma (Prostate cancer patient 9, A11)",IgG reactive to peptide in plasma [1],"IgG reactive to peptide in plasma, Total (positive/tested) (Prostate cancer patients)","IgG reactive to peptide in plasma (Prostate cancer patient 4, A31)","IgG reactive to peptide in plasma (Prostate cancer patient 6, A31)",IgG reactive to peptide in plasma [3],IgG reactive to peptide in plasma [4],IgG reactive to peptide in plasma [5],IgG reactive to peptide in plasma [8],other results
LYLPFRNCPR (PAP 154-163) [PAP-derived peptide],0/9,+ (IgG reactive to a corresponding peptide was judged to be positive when a difference of the optical density (OD) in a 1:100-diluted plasma was more than 100),+ (IgG reactive to a corresponding peptide was judged to be positive when a difference of the optical density (OD) in a 1:100-diluted plasma was more than 100),3/20,–,–,–,–,–,–,IgG reactive to peptide in plasma [2]: + (IgG reactive to a corresponding peptide was judged to be positive when a difference of the optical density (OD) in a 1:100-diluted plasma was more than 100)
"PAP 18-28 (FLFLLFFWLDR; UniProt P15309 18-28, looked up, fragment)",1/9,–,–,0/20,–,–,–,–,–,–,"IgG reactive to peptide in plasma (Healthy donor 12, A31): + (IgG reactive to a corresponding peptide was judged to be positive when a difference of the optical density (OD) in a 1:100-diluted plasma was more than 100)"
PSMA 590-698,0/9,+ (IgG reactive to a corresponding peptide was judged to be positive when a difference of the optical density (OD) in a 1:100-diluted plasma was more than 100),–,11/20,+ (IgG reactive to a corresponding peptide was judged to be positive when a difference of the optical density (OD) in a 1:100-diluted plasma was more than 100),+ (IgG reactive to a corresponding peptide was judged to be positive when a difference of the optical density (OD) in a 1:100-diluted plasma was more than 100),+ (IgG reactive to a corresponding peptide was judged to be positive when a difference of the optical density (OD) in a 1:100-diluted plasma was more than 100),+ (IgG reactive to a corresponding peptide was judged to be positive when a difference of the optical density (OD) in a 1:100-diluted plasma was more than 100),+ (IgG reactive to a corresponding peptide was judged to be positive when a difference of the optical density (OD) in a 1:100-diluted plasma was more than 100),+ (IgG reactive to a corresponding peptide was judged to be positive when a difference of the optical density (OD) in a 1:100-diluted plasma was more than 100),"IgG reactive to peptide in plasma (Prostate cancer patient 5, A31): + (IgG reactive to a corresponding peptide was judged to be positive when a difference of the optical density (OD) in a 1:100-diluted plasma was more than 100); IgG reactive to peptide in plasma (Prostate cancer patient 8, A11): + (IgG reactive to a corresponding peptide was judged to be positive when a difference of the optical density (OD) in a 1:100-diluted plasma was more than 100); IgG reactive to peptide in plasma [6]: + (IgG reactive to a corresponding peptide was judged to be positive when a difference of the optical density (OD) in a 1:100-diluted plasma was more than 100); IgG reactive to peptide in plasma [7]: + (IgG reactive to a corresponding peptide was judged to be positive when a difference of the optical density (OD) in a 1:100-diluted plasma was more than 100)"
VTLVFRHGDR (PAP 38-47) [PAP-derived peptide],1/9,+ (IgG reactive to a corresponding peptide was judged to be positive when a difference of the optical density (OD) in a 1:100-diluted plasma was more than 100),–,1/20,–,–,–,–,–,–,"IgG reactive to peptide in plasma (Healthy donor 8, A31): + (IgG reactive to a corresponding peptide was judged to be positive when a difference of the optical density (OD) in a 1:100-diluted plasma was more than 100)"
HIHSTNEVTR (PSMA 345-354) [PSMA-derived peptide],0/9,+ (IgG reactive to a corresponding peptide was judged to be positive when a difference of the optical density (OD) in a 1:100-diluted plasma was more than 100),–,11/20,+ (IgG reactive to a corresponding peptide was judged to be positive when a difference of the optical density (OD) in a 1:100-diluted plasma was more than 100),+ (IgG reactive to a corresponding peptide was judged to be positive when a difference of the optical density (OD) in a 1:100-diluted plasma was more than 100),+ (IgG reactive to a corresponding peptide was judged to be positive when a difference of the optical density (OD) in a 1:100-diluted plasma was more than 100),+ (IgG reactive to a corresponding peptide was judged to be positive when a difference of the optical density (OD) in a 1:100-diluted plasma was more than 100),–,+ (IgG reactive to a corresponding peptide was judged to be positive when a difference of the optical density (OD) in a 1:100-diluted plasma was more than 100),"IgG reactive to peptide in plasma (Prostate cancer patient 2, A31): + (IgG reactive to a corresponding peptide was judged to be positive when a difference of the optical density (OD) in a 1:100-diluted plasma was more than 100); IgG reactive to peptide in plasma (Prostate cancer patient 5, A31): + (IgG reactive to a corresponding peptide was judged to be positive when a difference of the optical density (OD) in a 1:100-diluted plasma was more than 100); IgG reactive to peptide in plasma [2]: + (IgG reactive to a corresponding peptide was judged to be positive when a difference of the optical density (OD) in a 1:100-diluted plasma was more than 100); IgG reactive to peptide in plasma [6]: + (IgG reactive to a corresponding peptide was judged to be positive when a difference of the optical density (OD) in a 1:100-diluted plasma was more than 100); IgG reactive to peptide in plasma [7]: + (IgG reactive to a corresponding peptide was judged to be positive when a difference of the optical density (OD) in a 1:100-diluted plasma was more than 100)"
SLYTKVVHYR [PSA 241-250],0/9,–,–,0/20,–,–,–,–,–,–,–
GLPDRPFYR [PSMA 680-688],0/9,+ (IgG reactive to a corresponding peptide was judged to be positive when a difference of the optical density (OD) in a 1:100-diluted plasma was more than 100),+ (IgG reactive to a corresponding peptide was judged to be positive when a difference of the optical density (OD) in a 1:100-diluted plasma was more than 100),12/20,+ (IgG reactive to a corresponding peptide was judged to be positive when a difference of the optical density (OD) in a 1:100-diluted plasma was more than 100),+ (IgG reactive to a corresponding peptide was judged to be positive when a difference of the optical density (OD) in a 1:100-diluted plasma was more than 100),+ (IgG reactive to a corresponding peptide was judged to be positive when a difference of the optical density (OD) in a 1:100-diluted plasma was more than 100),+ (IgG reactive to a corresponding peptide was judged to be positive when a difference of the optical density (OD) in a 1:100-diluted plasma was more than 100),+ (IgG reactive to a corresponding peptide was judged to be positive when a difference of the optical density (OD) in a 1:100-diluted plasma was more than 100),+ (IgG reactive to a corresponding peptide was judged to be positive when a difference of the optical density (OD) in a 1:100-diluted plasma was more than 100),"IgG reactive to peptide in plasma (Prostate cancer patient 2, A31): + (IgG reactive to a corresponding peptide was judged to be positive when a difference of the optical density (OD) in a 1:100-diluted plasma was more than 100); IgG reactive to peptide in plasma (Prostate cancer patient 7, A11): + (IgG reactive to a corresponding peptide was judged to be positive when a difference of the optical density (OD) in a 1:100-diluted plasma was more than 100); IgG reactive to peptide in plasma (Prostate cancer patient 8, A11): + (IgG reactive to a corresponding peptide was judged to be positive when a difference of the optical density (OD) in a 1:100-diluted plasma was more than 100)"
LYTKVVHYR (PSA 242-250) [PSA-derived peptide],0/9,–,–,0/20,–,–,–,–,–,–,–
FLLFFWLDR [PAP 20-28],0/9,–,–,1/20,–,–,–,–,+ (IgG reactive to a corresponding peptide was judged to be positive when a difference of the optical density (OD) in a 1:100-diluted plasma was more than 100),–,–
VTKFMLCAGR (PSA 192-201) [PSA-derived peptide],0/9,–,+ (IgG reactive to a corresponding peptide was judged to be positive when a difference of the optical density (OD) in a 1:100-diluted plasma was more than 100),1/20,–,–,–,–,–,–,–
